Laboratory results: patent publication US12655116B2, “Substituted isophthalic acid diamides” (Bayer Aktiengesellschaft, priority 2020, dated 2026)

What was measured:
ECHCG [1] = experiment: Post-emergence herbicidal action against ECHCG; assay type: in vivo, Echinochloa crus-galli; conditions: Echinochloa crus-galli, 504 h, dosage 80 g/ha
How it was run: (§1)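 Foliar application at one-leaf stage of formulated test compounds, aqueous spray at 600–800 l/ha with 0.2% wetting agent. Greenhouse, optimal conditions, ~3 weeks; damage scored visually in % relative to untreated plants.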

CYPES [2] = experiment: Post-emergence herbicidal action against CYPES; assay type: in vivo, Cyperus esculentus; conditions: 80 g/ha, visual assessment about 3 weeks after treatment, 100% = plants have died, 0% = like control plants
Description: Seeds of monocotyledonous and dicotyledonous weed and crop plants are laid out in sandy loam soil in wood-fiber pots, covered with soil and cultivated in a greenhouse under good growth conditions. 2 to 3 weeks after sowing, the test plants are treated at the one-leaf stage. The compounds of the invention, formulated in the form of wettable powders (WP) or as emulsion concentrates (EC), are then sprayed onto the green parts of the plants in the form of an aqueous suspension or emulsion at a water application rate equivalent to 600 to 800 l/ha, with addition of 0.2% wetting agent. After the test plants have been left to stand in the greenhouse under optimal growth conditions for about 3 weeks, the action of the preparations is assessed visually in comparison to untreated controls (herbicidal action in percent (%): 100% activity=the plants have died, 0% activity=like control plants). […] The tables below illustrate, in an illustrative manner, the post-emergence herbicidal action of the compounds of the invention, the herbicidal activity being stated in percent.

SETVI [3] = experiment: Pre-emergence herbicidal action against SETVI; assay type: in vivo, Setaria viridis; conditions: Setaria viridis, 504 h, dosage 320 g/ha
How it was run: (§2)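 Greenhouse pots of sandy loam held seeds covered with soil, onto which the compound was applied before emergence. An aqueous suspension or emulsion of WP or EC was used at 600 to 800 l/ha with 0.2% wetting agent. Percent damage was judged visually at 3 weeks.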

AVEFA [4] = experiment: Pre-emergence herbicidal action against AVEFA; assay type: in vivo, Avena fatua; conditions: Avena fatua, pre-emergence, 504 h; 320 g/ha; scored visually after 3 weeks, 100% = plants have died, 0% = like control plants
How it was run: as §2

ALOMY [5] = experiment: Post-emergence herbicidal action against ALOMY; assay type: in vivo, Alopecurus myosuroides; conditions: Alopecurus myosuroides, 504 h, dosage 80 g/ha, visual assessment about 3 weeks after treatment vs untreated controls
How it was run: as §1

ECHCG [6] = experiment: Pre-emergence herbicidal action against ECHCG; assay type: in vivo, Echinochloa crus-galli; conditions: Echinochloa crus-galli, 504 h, 320 g/ha
How it was run: as §2

AMARE [7] = experiment: Post-emergence herbicidal action against AMARE; assay type: in vivo, Amaranthus retroflexus; conditions: Amaranthus retroflexus, 504 h, 80 g/ha, visual assessment about 3 weeks after treatment, 100% = plants have died, 0% = like control plants
How it was run: as §1

ABUTH [8] = experiment: Post-emergence herbicidal action against ABUTH; assay type: in vivo, Abutilon theophrasti; conditions: Abutilon theophrasti, 504 h, visual assessment about 3 weeks after treatment vs untreated controls
How it was run: as §1

ALOMY [9] = experiment: Pre-emergence herbicidal action against ALOMY; assay type: in vivo, Alopecurus myosuroides; conditions: Alopecurus myosuroides, pre-emergence, 504 h; 320 g/ha; scored visually after 3 weeks, 100% = plants have died, 0% = like control plants
How it was run: as §2

CYPES [10] = experiment: Pre-emergence herbicidal action against CYPES; assay type: in vivo; conditions: Cyperus esculentus, 504 h
Source text: Seeds of monocotyledonous and dicotyledonous weed plants and crop plants are laid out in sandy loam soil in wood-fiber pots and covered with soil. The compounds of the invention, formulated in the form of wettable powders (WP) or as emulsion concentrates (EC), are then applied to the surface of the covering soil in the form of an aqueous suspension or emulsion at a water application rate equivalent to 600 to 800 l/ha, with addition of 0.2% wetting agent. After the treatment, the pots are placed in a greenhouse and kept under good growth conditions for the trial plants. The damage to the test plants is scored visually after a test period of 3 weeks by comparison with untreated controls (herbicidal activity in percent (%): 100% activity=the plants have died, 0% activity=like control plants). […] The tables below illustrate, in an illustrative manner, the post-emergence herbicidal action of the compounds of the invention, the herbicidal activity being stated in percent.

STEME [11] = experiment: Pre-emergence herbicidal action against STEME; assay type: in vivo, Stellaria media; conditions: Stellaria media, 504 h, dosage 320 g/ha
How it was run: as §2

MATIN = experiment: Pre-emergence herbicidal action against MATIN; assay type: in vivo, Matricaria inodora; conditions: Tripleurospermum inodorum, 504 h, dosage 320 g/ha
How it was run: as §2

AMARE [12] = experiment: Pre-emergence herbicidal action against AMARE; assay type: in vivo, Amaranthus retroflexus; conditions: Amaranthus retroflexus, 504 h, 100% = plants have died, 0% = like control plants
How it was run: as §2

SETVI [13] = experiment: Post-emergence herbicidal action against SETVI; assay type: in vivo, Setaria viridis; conditions: Setaria viridis, 504 h
How it was run: as §1

HORMU [14] = experiment: Pre-emergence herbicidal action against HORMU; assay type: in vivo, Hordeum murinum; conditions: Hordeum murinum, 504 h; 320 g/ha, pre-emergence
How it was run: as §2

VIOTR [15] = experiment: Pre-emergence herbicidal action against VIOTR; assay type: in vivo, Viola tricolor; conditions: Viola tricolor, 504 h, dosage 320 g/ha
How it was run: as §2

ABUTH [16] = experiment: Pre-emergence herbicidal action against ABUTH; assay type: in vivo, Abutilon theophrasti; conditions: Abutilon theophrasti, 504 h
How it was run: as §2

VERPE [17] = experiment: Post-emergence herbicidal action against VERPE; assay type: in vivo, Veronica persica; conditions: Veronica persica, 504 h
How it was run: as §1

HORMU [18] = experiment: Post-emergence herbicidal action against HORMU; assay type: in vivo, Hordeum murinum; conditions: Hordeum murinum, 504 h, dosage 80 g/ha
How it was run: as §1

AVEFA [19] = experiment: Post-emergence herbicidal action against AVEFA; assay type: in vivo, Avena fatua; conditions: Avena fatua, 504 h, 80 g/ha, visual assessment about 3 weeks after treatment, 100% = plants have died, 0% = like control plants
How it was run: as §1

STEME [20] = experiment: Post-emergence herbicidal action against STEME; assay type: in vivo, Stellaria media; conditions: Stellaria media, 504 h, 80 g/ha
How it was run: as §1

VERPE [21] = experiment: Pre-emergence herbicidal action against VERPE; assay type: in vivo, Veronica persica; conditions: Veronica persica, 504 h, dosage 320 g/ha
How it was run: as §2

VIOTR [22] = experiment: Post-emergence herbicidal action against VIOTR; assay type: in vivo, Viola tricolor; conditions: Viola tricolor, 504 h
How it was run: as §1

Cc1nnc(NC(=O)c2ccc(C(F)(F)F)c(C(N)=O)c2Cl)o1 [Example 6-253]
pest or weed control at 80 g/ha (ECHCG [1]): 90%
Post-emergence action at 80 g/ha against CYPES in % (CYPES [2]): 80%
pest or weed control at 320 g/ha (SETVI [3]): 100%
pest or weed control at 320 g/ha (AVEFA [4]): 90%
pest or weed control at 80 g/ha (ALOMY [5]): 80%
pest or weed control at 320 g/ha (ECHCG [6]): 100%
pest or weed control at 80 g/ha (AMARE [7]): 100%
pest or weed control at 5 g/ha (ABUTH [8]; dosage 5 g/ha): 100%
pest or weed control at 20 g/ha (ABUTH [8]; dosage 20 g/ha): 100%
pest or weed control at 80 g/ha (ABUTH [8]; dosage 80 g/ha): 100%
pest or weed control at 320 g/ha (ALOMY [9]): 90%
pest or weed control at 20 g/ha (CYPES [10]; 20 g/ha, scored visually after 3 weeks, 100% = plants have died, 0% = like control plants): 80%
pest or weed control at 80 g/ha (CYPES [10]; 80 g/ha, scored visually after 3 weeks, 100% = plants have died, 0% = like control plants): 90%
pest or weed control at 320 g/ha (CYPES [10]; 320 g/ha): 100%
pest or weed control at 320 g/ha (STEME [11]): 100%
pest or weed control at 320 g/ha (MATIN): 100%
pest or weed control at 80 g/ha (AMARE [12]; 80 g/ha, scored visually after 3 weeks vs untreated controls): 80%
pest or weed control at 320 g/ha (AMARE [12]; 320 g/ha, scored visually after 3 weeks): 90%
pest or weed control at 20 g/ha (SETVI [13]; dosage 20 g/ha): 90%
pest or weed control at 80 g/ha (SETVI [13]; dosage 80 g/ha): 100%
pest or weed control at 320 g/ha (HORMU [14]): 90%
pest or weed control at 320 g/ha (VIOTR [15]): 100%
pest or weed control at 80 g/ha (ABUTH [16]; 80 g/ha, scored visually after 3 weeks vs untreated controls (100% = plants have died, 0% = like control plants)): 90%
pest or weed control at 320 g/ha (ABUTH [16]; Dosage: 320 g/ha, scored visually after 3 weeks, 100% = plants have died, 0% = like control plants): 100%
pest or weed control at 20 g/ha (VERPE [17]; 20 g/ha): 80%
pest or weed control at 80 g/ha (VERPE [17]; 80 g/ha): 90%
pest or weed control at 80 g/ha (HORMU [18]): 90%
pest or weed control at 80 g/ha (AVEFA [19]): 80%
pest or weed control at 80 g/ha (STEME [20]): 90%
pest or weed control at 320 g/ha (VERPE [21]): 100%
pest or weed control at 20 g/ha (VIOTR [22]; 20 g/ha): 80%
pest or weed control at 80 g/ha (VIOTR [22]; 80 g/ha): 80%
